# Measured values reported in patent US11712438B2, “Phenyl derivatives as PGE2 receptor modulators” (IDORSIA PHARMACEUTICALS LTD, priority 2017, dated 2023).
# Assays:
# Assay in all cases: cell-based
# PTRGER4 (EP4) = PTRGER4 (EP4) (Homo sapiens, UniProt P35408);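 also: assay plate preincubated 15 min at 37 °C, after which PGE2 was added at 20 nM final and incubation continued 120 min at 37 °C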
# From the text: The assay is using the PathHunter™ HEK 293 PTGER2 and PTGER4 b-arrestin cell lines from DiscoverX. The system is based on the Enzyme Fragment Complementation Technology. Two complementing fragments of the b-galactosidase enzyme are expressed within stably transfected cells. The larger portion of b-gal, termed EA for Enzyme Acceptor, is fused to the C-terminus of b-arrestin 2. The smaller fragment, termed ProLink™ tag, is fused to PTGER2 (EP2) or PTRGER4 (EP4) at the C-terminus. Upon activation, b-arrestin is recruited which forces the interaction of ProLink and EA, allowing complementation of the two fragments of b-gal and the formation of a functional enzyme which is capable of hydrolysing the substrate and generating a chemiluminescent signal.
# The HEK 293 PTGER4 b-arrestin cells (DiscoverX 93-030-4C1) are detached from culture dishes with a cell dissociation buffer (Invitrogen, 13151-014), and collected in growing medium (GM: DMEM+Glutamax-I (Invitrogen 32430)/10% FCS, 1% Penicilin/streptomycin). 5000 cells per well of a 384 well plate (white with white bottom Greiner 781080) are seeded in 20 ul per well of GM. Plate is incubated at 37° C., 5% CO2 for 24 hours.
# Stock solutions of test compounds are made at a concentration of 10 mM in DMSO, and serially diluted in DMSO to concentrations required for inhibition dose response curves (tested concentration range 10 μM-2 nM or 1 μM-0.2 nM).
# PGE2 (Cayman 14010, stock solution: 100 uM in DMSO) is used as agonist at 20 nM final concentration, corresponding to EC80.
# Five microliters of diluted compounds are transferred into the assay plate. Plate is pre-incubated 15 minutes at 37° C. Then five microliters of PGE2 (final conc. 20 nM) are transferred into the assay plate. Plate is incubated 120 minutes at 37° C.
# Twelve μl of reagent are transferred to the assay plate and incubate for 1 hour at room temperature in the dark. Luminescence counts are read on a BMG Fluostar Optima reader according to manufacturers instructions.
# For each compound concentration calculate of the percentage of activity compared to DMSO control value as average±STDEV. (each concentration is measured in duplicate)
# When compounds were measured multiple times, mean values are given.
# EP2 = EP2 (Homo sapiens, UniProt P43116);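 also: SF295 glioblastoma cells with endogenous EP2 only, PGE2-stimulated cAMP accumulation read by HTRF competitive immunoassay, 45 min pre-incubation then 30 min at room temperature, IBMX in buffer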
# EP4 = EP4 (Homo sapiens, UniProt P35408);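 also: inhibition of PGE2-evoked (6 nM) cAMP accumulation in BT549 breast cancer cells endogenously expressing EP4, cAMP read by HTRF competitive immunoassay after 30 min at room temperature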
# PTGER2 (EP2) = PTGER2 (EP2) (Homo sapiens, UniProt P43116)
# Chain of PTGER2 (EP2) (P43116 whole entry): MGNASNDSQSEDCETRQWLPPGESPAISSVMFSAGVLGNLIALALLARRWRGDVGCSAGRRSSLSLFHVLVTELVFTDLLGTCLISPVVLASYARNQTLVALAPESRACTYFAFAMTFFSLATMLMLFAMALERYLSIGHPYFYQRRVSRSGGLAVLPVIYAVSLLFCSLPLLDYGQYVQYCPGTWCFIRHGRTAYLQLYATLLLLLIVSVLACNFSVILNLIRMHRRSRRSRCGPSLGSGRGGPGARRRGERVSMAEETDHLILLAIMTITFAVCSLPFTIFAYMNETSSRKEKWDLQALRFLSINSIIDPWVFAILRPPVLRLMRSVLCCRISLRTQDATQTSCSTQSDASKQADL
# Chain of PTRGER4 (EP4) (P35408 whole entry): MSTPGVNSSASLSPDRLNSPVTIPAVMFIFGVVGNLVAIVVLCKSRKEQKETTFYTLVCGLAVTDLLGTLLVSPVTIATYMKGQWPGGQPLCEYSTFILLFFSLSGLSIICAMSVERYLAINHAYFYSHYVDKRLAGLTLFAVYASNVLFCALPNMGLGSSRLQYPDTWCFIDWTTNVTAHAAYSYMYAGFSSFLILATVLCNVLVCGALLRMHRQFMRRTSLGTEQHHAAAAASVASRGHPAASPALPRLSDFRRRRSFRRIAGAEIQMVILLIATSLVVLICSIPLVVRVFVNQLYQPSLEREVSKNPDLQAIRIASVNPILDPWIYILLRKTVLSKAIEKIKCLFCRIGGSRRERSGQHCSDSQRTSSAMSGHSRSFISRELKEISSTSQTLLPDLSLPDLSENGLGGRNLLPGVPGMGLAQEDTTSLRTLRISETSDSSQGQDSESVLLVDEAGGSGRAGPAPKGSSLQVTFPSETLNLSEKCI
# Chain of EP4 (P35408 whole entry): as above
# Chain of EP2 (P43116 whole entry): as the sequence (P43116 whole entry) above
SMILES,IC50 (PTRGER4 (EP4)),IC50 (EP2),IC50 (EP4),IC50 (PTGER2 (EP2))
"COc1cc(C)c(C)cc1CCNc1cc(-c2ccc(C(=O)O)c(SC)c2)ncn1 [Example 3, 4-{6-[2-(2-Methoxy-4,5-dimethyl-phenyl)-ethylamino]-pyrimidin-4-yl}-2-methylsulfanyl-benzoic acid]",420 nM,45 nM,46 nM,86 nM
"CCOc1cc(-c2cc(NCCc3ccc(SC)cc3OC)ncn2)ccc1C(=O)O [Example 6, 2-Ethoxy-4-{6-[2-(2-methoxy-4-methylsulfanyl-phenyl)-ethylamino]-pyrimidin-4-yl}-benzoic acid]",1210 nM,702 nM,573 nM,1350 nM
"CCOc1cc(-c2cc(NCCc3cc(C)c(C)cc3OC)ncn2)ccc1C(=O)O [Example 7, 2-Ethoxy-4-{6-[2-(2-methoxy-4,5-dimethyl-phenyl)-ethylamino]-pyrimidin-4-yl}-benzoic acid]",759 nM,205 nM,140 nM,441 nM
"CCOc1cc(-c2cc(NCCc3ccc(Br)cc3)ncn2)ccc1C(=O)O [Example 11, 4-{6-[2-(4-Bromo-phenyl)-ethylamino]-pyrimidin-4-yl}-2-ethoxy-benzoic acid]",1090 nM,311 nM,440 nM,358 nM
"CCOc1cc(-c2cc(NCCc3ccc(Br)cc3)ncn2)ccc1-c1noc(=O)[nH]1 [Example 15, 3-(4-{6-[2-(4-Bromo-phenyl)-ethylamino]-pyrimidin-4-yl}-2-ethoxy-phenyl)-[1,2,4]oxadiazol-5(4H)-one]",56 nM,198 nM,42 nM,368 nM
"CCOc1cc(-c2cc(NCCc3ccc(Br)cc3)ncn2)sc1CC(=O)O [Example 17, (5-{6-[2-(4-Bromo-phenyl)-ethylamino]-pyrimidin-4-yl}-3-ethoxy-thiophen-2-yl)-acetic acid]",147 nM,189 nM,293 nM,202 nM
"CSc1cc(-c2cc(NCCc3ccc(C)c(C)c3)ncn2)ccc1C(=O)O [Example 18, 4-{6-[2-(3,4-Dimethyl-phenyl)-ethylamino]-pyrimidin-4-yl}-2-methylsulfanyl-benzoic acid]",168 nM,130 nM,173 nM,481 nM
"CCOc1cc(-c2cc(NCCc3ccc(Br)cc3F)ncn2)ccc1C(=O)O [Example 21, 4-{6-[2-(4-Bromo-2-fluoro-phenyl)-ethylamino]-pyrimidin-4-yl}-2-ethoxy-benzoic acid]",779 nM,193 nM,80 nM,248 nM
"CCOc1cc(-c2cc(NCCc3c(F)cc(Br)cc3F)ncn2)ccc1-c1nnn[nH]1 [Example 23, [2-(4-Bromo-2,6-difluoro-phenyl)-ethyl]-{6-[3-ethoxy-4-(1H-tetrazol-5yl)-phenyl]-pyrimidin-4-yl}-amine]",60 nM,28 nM,61 nM,73 nM
"O=C(O)c1ccc(-c2cc(NCCc3c(F)cc(Br)cc3F)ncn2)s1 [Example 26, 5-{6-[2-(4-Bromo-2,6-difluoro-phenyl)-ethylamino]-pyrimidin-4-yl}-thiophene-2-carboxylic acid]",104 nM,46 nM,115 nM,149 nM
"CCOc1c(C(=O)O)sc(-c2cc(NCCc3c(F)cc(Br)cc3F)ncn2)c1Cl [Example 27, 5-{6-[2-(4-Bromo-2,6-difluoro-phenyl)-ethylamino]-pyrimidin-4-yl}-4-chloro-3-ethoxy-thiophene-2-carboxylic acid]",168 nM,50 nM,97 nM,23 nM
"Cc1cc(-c2cc(NCCc3c(F)cc(Br)cc3F)ncn2)sc1C(=O)O [Example 28, 5-{6-[2-(4-Bromo-2,6-difluoro-phenyl)-ethylamino]-pyrimidin-4-yl}-3-methyl-thiophene-2-carboxylic acid]",80 nM,41 nM,41 nM,49 nM
"CCc1cc(-c2cc(NCCc3c(F)cc(Br)cc3F)ncn2)sc1C(=O)O [Example 29, 5-{6-[2-(4-Bromo-2,6-difluoro-phenyl)-ethylamino]-pyrimidin-4-yl}-3-ethyl-thiophene-2-carboxylic acid]",20 nM,23 nM,12 nM,29 nM
"O=C(O)c1sc(-c2cc(NCCc3c(F)cc(Br)cc3F)ncn2)cc1Cl [Example 31, 5-{6-[2-(4-Bromo-2,6-difluoro-phenyl)-ethylamino]-pyrimidin-4-yl}-3-chloro-thiophene-2-carboxylic acid]",100 nM,8 nM,14 nM,39 nM
"CCCc1cc(-c2cc(NCCc3c(F)cc(Br)cc3F)ncn2)ccc1C(=O)O [Example 35, 4-{6-[2-(4-Bromo-2,6-difluoro-phenyl)-ethylamino]-pyrimidin-4-yl}-2-propyl-benzoic acid]",242 nM,86 nM,433 nM,109 nM
"O=C(O)c1ccc(-c2cc(NCCc3c(F)cc(Br)cc3F)ncn2)cc1OC1CCC1 [Example 42, 4-{6-[2-(4-Bromo-2,6-difluoro-phenyl)-ethylamino]-pyrimidin-4-yl}-2-cyclobutoxy-benzoic acid]",241 nM,50 nM,297 nM,59 nM
"CCCCOc1cc(-c2cc(NCCc3c(F)cc(Br)cc3F)ncn2)ccc1C(=O)O [Example 43, 4-{6-[2-(4-Bromo-2,6-difluoro-phenyl)-ethylamino]-pyrimidin-4-yl}-2-butoxy-benzoic acid]",208 nM,66 nM,514 nM,55 nM

# Now from value to compound:
IC50 (PTRGER4 (EP4)),IC50 (EP2),IC50 (EP4),IC50 (PTGER2 (EP2)),SMILES
684 nM,91 nM,951 nM,70 nM,"CCCOc1cc(-c2cc(NCCc3c(F)cc(Br)cc3F)ncn2)ccc1C(=O)O [Example 36, 4-{6-[2-(4-Bromo-2,6-difluoro-phenyl)-ethylamino]-pyrimidin-4-yl}-2-propoxy-benzoic acid]"
202 nM,128 nM,81 nM,277 nM,"CC(C)Cc1cc(-c2cc(NCCc3c(F)cc(Br)cc3F)ncn2)ccc1C(=O)O [Example 38, 4-{6-[2-(4-Bromo-2,6-difluoro-phenyl)-ethylamino]-pyrimidin-4-yl}-2-isobutyl-benzoic acid]"
349 nM,164 nM,697 nM,122 nM,"CCCc1cc(-c2cc(NCCc3c(F)cc(Br)cc3F)ncn2)cc(F)c1C(=O)O [Example 39, 4-{6-[2-(4-Bromo-2,6-difluoro-phenyl)-ethylamino]-pyrimidin-4-yl}-2-fluoro-6-propyl-benzoic acid]"
342 nM,20 nM,107 nM,92 nM,"O=C(O)c1ccc(-c2cc(NCCc3c(F)cc(Br)cc3F)ncn2)cc1OC(F)F [Example 41, 4-{6-[2-(4-Bromo-2,6-difluoro-phenyl)-ethylamino]-pyrimidin-4-yl}-2-difluoromethoxy-benzoic acid]"
62 nM,120 nM,38 nM,44 nM,"CCOc1cc(-c2cc(NCCc3c(F)cc(Br)cc3F)ncn2)sc1CCC(=O)O [Example 44, 3-(5-{6-[2-(4-Bromo-2,6-difluoro-phenyl)-ethylamino]-pyrimidin-4-yl}-3-ethoxy-thiophen-2yl)-propionic acid]"
50 nM,184 nM,165 nM,81 nM,"CCOc1cc(-c2cc(NCCc3c(F)cc(Br)cc3F)ncn2)ccc1OCCC(=O)O [Example 45, 3-(4-{6-[2-(4-Bromo-2,6-difluoro-phenyl)-ethylamino]-pyrimidin-4-yl}-2-ethoxy-phenoxy)-propionic acid]"
148 nM,303 nM,470 nM,105 nM,"O=C(O)c1cccc2[nH]c(-c3cc(NCCc4c(F)cc(Br)cc4F)ncn3)cc12 [Example 46, 2-{6-[2-(4-Bromo-2,6-difluoro-phenyl)-ethylamino]-pyrimidin-4-yl}-1H-indole-4-carboxylic acid]"
11 nM,129 nM,85 nM,50 nM,"CCOc1cc(-c2cc(NCCc3c(F)cc(Br)cc3F)ncn2)sc1/C=C/C(=O)O [Example 47, (E)-3-(5-{6-[2-(4-Bromo-2,6-difluoro-phenyl)-ethylamino]-pyrimidin-4-yl}-3-ethoxy-thiophen-2yl)-acrylic acid]"
25 nM,46 nM,51 nM,28 nM,"CCOc1cc(-c2cc(NCCc3c(F)cc(Br)cc3F)ncn2)sc1CC(=O)O [Example 48, (5-{6-[2-(4-Bromo-2,6-difluoro-phenyl)-ethylamino]-pyrimidin-4-yl}-3-ethoxy-thiophen-2-yl)-acetic acid]"
143 nM,246 nM,159 nM,139 nM,"CCOc1cc(-c2cc(NCCc3c(F)cc(Br)cc3F)ncn2)ccc1CC(=O)O [Example 49, (4-{6-[2-(4-Bromo-2,6-difluoro-phenyl)-ethylamino]-pyrimidin-4-yl}-2-ethoxy-phenyl)-acetic acid]"
1310 nM,259 nM,910 nM,264 nM,"CCOc1cc(-c2cc(NCCc3ccc(Br)cc3OC)ncn2)ccc1C(=O)O [Example 50, 4-{6-[2-(4-Bromo-2-methoxy-phenyl)-ethylamino]-pyrimidin-4-yl}-2-ethoxy-benzoic acid]"
472 nM,63 nM,221 nM,437 nM,"CCc1cc(-c2cc(NCCc3c(F)cccc3F)ncn2)sc1C(=O)O [Example 53, 5-{6-[2-(2,6-Difluoro-phenyl)-ethylamino]-pyrimidin-4-yl}-3-ethyl-thiophene-2-carboxylic acid]"
